Source: ChEMBL document CHEMBL1139788, “Potent, nonsteroidal selective androgen receptor modulators (SARMs) based on 8H-[1,4]oxazino[2,3-f]quinolin-8-ones” (Bioorg Med Chem Lett, 2007)
Calls of active or inactive are those of the source. No cut-off for these calls is given here.

Legend:
Androgen receptor [1] = target: T1, Androgen receptor (Homo sapiens, UniProt P10275)
T1 sequence (P10275 whole entry): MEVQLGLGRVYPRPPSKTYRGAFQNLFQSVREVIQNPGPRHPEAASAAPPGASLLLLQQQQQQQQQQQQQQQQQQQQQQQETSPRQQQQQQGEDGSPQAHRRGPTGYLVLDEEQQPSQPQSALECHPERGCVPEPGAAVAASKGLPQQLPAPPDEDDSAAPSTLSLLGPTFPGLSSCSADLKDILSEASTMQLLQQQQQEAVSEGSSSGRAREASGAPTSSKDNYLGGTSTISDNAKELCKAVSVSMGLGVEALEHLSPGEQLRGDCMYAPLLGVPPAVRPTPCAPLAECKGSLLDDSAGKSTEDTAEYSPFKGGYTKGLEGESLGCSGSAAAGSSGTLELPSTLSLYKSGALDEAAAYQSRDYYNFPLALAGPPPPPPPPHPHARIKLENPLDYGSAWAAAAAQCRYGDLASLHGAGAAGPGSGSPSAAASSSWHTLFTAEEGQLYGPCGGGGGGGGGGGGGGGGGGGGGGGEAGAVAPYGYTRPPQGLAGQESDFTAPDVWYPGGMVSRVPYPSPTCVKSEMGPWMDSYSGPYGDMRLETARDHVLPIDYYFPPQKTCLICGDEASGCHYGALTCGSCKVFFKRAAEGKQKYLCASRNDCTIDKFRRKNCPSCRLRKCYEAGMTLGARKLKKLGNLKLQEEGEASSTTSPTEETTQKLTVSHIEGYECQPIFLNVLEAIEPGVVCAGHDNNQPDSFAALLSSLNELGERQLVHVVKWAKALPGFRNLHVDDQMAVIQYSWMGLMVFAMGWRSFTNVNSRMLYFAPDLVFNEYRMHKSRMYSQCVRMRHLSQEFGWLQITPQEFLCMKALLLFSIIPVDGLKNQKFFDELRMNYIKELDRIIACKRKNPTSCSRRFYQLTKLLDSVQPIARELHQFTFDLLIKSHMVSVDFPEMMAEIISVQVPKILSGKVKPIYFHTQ
Description: Agonist activity at human androgen receptor expressed in CV1 cells by transcriptional activation assay

Androgen receptor [2] = target: T1, Androgen receptor; remark: listed apart in the source
Description: Antagonist activity at human androgen receptor expressed in CV1 cells by transcriptional activation assay

[3] = target: T2, Progesterone receptor (Homo sapiens) (UniProt P06401); assay: Antagonist activity at progesterone receptor by transactivation assay; type: functional
T2 sequence (whole entry): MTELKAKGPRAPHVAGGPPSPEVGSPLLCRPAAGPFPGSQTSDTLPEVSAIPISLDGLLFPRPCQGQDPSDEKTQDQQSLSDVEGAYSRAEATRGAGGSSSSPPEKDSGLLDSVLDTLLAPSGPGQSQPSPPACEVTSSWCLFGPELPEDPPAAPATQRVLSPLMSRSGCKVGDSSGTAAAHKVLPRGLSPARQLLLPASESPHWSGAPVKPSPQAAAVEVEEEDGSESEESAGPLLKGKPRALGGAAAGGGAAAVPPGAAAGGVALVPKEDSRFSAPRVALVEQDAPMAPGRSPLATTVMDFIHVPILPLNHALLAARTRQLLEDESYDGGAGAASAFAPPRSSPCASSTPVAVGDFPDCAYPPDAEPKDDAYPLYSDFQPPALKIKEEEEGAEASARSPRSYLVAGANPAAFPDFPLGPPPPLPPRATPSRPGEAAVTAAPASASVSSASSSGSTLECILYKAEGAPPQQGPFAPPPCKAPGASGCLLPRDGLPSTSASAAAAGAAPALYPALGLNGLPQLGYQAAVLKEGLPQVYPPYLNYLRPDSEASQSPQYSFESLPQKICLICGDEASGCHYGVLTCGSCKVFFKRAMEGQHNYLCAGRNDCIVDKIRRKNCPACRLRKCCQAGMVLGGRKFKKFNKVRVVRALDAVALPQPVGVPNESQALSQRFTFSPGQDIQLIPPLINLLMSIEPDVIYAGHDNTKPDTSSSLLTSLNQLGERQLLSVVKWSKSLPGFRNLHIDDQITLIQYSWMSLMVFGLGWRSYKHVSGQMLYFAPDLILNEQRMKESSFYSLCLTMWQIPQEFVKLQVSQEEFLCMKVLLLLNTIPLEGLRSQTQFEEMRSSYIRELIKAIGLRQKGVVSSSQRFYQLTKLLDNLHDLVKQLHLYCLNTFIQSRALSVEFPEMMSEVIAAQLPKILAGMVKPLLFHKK

[4] = target: T3, Glucocorticoid receptor (Homo sapiens) (UniProt P04150); assay: (§1) Antagonist activity at glucocorticoid receptor by transactivation assay; type: functional
T3 sequence (whole entry): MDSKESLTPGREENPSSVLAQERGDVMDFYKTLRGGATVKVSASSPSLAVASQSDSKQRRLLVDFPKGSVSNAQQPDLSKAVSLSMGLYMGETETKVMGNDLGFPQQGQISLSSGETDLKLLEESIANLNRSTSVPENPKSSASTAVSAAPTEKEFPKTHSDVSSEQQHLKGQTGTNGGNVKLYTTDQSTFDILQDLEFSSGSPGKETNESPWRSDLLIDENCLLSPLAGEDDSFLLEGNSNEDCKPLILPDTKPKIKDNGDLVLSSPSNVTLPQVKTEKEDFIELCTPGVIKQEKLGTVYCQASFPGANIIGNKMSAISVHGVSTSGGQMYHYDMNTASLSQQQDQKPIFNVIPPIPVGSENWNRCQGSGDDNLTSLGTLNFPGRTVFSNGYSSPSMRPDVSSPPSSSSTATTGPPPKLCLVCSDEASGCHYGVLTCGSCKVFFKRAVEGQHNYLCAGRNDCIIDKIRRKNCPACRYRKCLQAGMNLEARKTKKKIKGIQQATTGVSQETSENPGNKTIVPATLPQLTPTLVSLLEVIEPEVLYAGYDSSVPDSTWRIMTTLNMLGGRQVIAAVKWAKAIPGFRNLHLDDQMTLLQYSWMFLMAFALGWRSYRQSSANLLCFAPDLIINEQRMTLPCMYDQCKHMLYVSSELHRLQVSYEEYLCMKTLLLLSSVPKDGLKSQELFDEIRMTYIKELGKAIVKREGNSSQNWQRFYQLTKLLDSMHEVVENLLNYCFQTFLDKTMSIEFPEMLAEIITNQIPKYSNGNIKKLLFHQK

[5] = target: T4, Mineralocorticoid receptor (Homo sapiens) (UniProt P08235); assay: Antagonist activity at mineralocorticoid receptor by transactivation assay; type: functional
T4 sequence (whole entry): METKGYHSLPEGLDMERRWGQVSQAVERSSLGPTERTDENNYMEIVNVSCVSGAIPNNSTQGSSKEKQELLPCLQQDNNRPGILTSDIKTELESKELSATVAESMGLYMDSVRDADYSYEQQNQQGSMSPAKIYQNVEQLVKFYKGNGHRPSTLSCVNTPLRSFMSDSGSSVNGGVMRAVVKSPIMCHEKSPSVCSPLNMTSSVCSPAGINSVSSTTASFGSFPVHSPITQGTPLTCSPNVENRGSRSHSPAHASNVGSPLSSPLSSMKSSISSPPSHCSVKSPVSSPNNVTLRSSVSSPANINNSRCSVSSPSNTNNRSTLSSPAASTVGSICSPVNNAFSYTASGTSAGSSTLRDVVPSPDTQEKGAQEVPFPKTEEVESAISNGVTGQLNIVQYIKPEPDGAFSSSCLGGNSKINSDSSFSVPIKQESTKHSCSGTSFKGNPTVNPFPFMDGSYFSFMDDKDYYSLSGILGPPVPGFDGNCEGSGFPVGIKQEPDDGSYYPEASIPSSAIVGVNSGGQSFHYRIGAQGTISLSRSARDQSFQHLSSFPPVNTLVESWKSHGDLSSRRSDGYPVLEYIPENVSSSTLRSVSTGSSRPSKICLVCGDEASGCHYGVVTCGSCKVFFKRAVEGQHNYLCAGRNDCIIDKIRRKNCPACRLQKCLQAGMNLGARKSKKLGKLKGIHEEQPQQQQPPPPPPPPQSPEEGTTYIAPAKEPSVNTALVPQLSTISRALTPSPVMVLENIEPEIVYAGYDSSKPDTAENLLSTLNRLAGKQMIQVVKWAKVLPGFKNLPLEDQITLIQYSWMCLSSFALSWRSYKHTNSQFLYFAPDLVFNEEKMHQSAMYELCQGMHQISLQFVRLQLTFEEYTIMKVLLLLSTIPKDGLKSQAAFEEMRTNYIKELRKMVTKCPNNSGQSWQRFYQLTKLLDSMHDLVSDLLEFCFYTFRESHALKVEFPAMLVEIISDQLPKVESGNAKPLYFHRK

[6] = target: T2, Progesterone receptor (Homo sapiens); assay: Agonist activity at progesterone receptor by transactivation assay; type: functional
[7] = target: T3, Glucocorticoid receptor (Homo sapiens); assay: Agonist activity at glucocorticoid receptor by transactivation assay; type: functional
[8] = target: T4, Mineralocorticoid receptor (Homo sapiens); assay: Agonist activity at mineralocorticoid receptor by transactivation assay; type: functional
Rattus norvegicus [9] = assay: Effect on levator ani muscle weight maintenance in 2-week castrated mature rat model at 10 mg/kg; type: functional, organism-based; design: dose 10 mg/kg
Rattus norvegicus [10] = assay: Reduced activity on ventral prostate weight in 2-week castrated mature rat model at 100 mg/kg; type: functional, organism-based; design: dose 100 mg/kg; settings: Prostate gland
Glucocorticoid receptor = target: T5, Glucocorticoid receptor (Homo sapiens, UniProt P04150); assay: as §1; type: functional
T5 sequence (P04150 whole entry): T3 sequence (whole entry)

Row | Structure (SMILES) | EC50 (Androgen receptor [1]) [nM] | IC50 (Androgen receptor [2]) [nM] | further results
1 | O=c1cc(C(F)(F)F)c2c3c(ccc2[nH]1)N(CC(F)(F)F)[C@H](Cc1ccccc1)CO3 | 43 | > 10000 | –
2 | CC(C)[C@@H]1COc2c(ccc3[nH]c(=O)cc(C(F)(F)F)c23)N1CC(F)(F)F | 20 | > 10000 | –
3 | CCN1c2ccc3[nH]c(=O)cc(C(F)(F)F)c3c2OC[C@H]1C | 420 | – | –
4 | O=c1cc(C(F)(F)F)c2c3c(ccc2[nH]1)NCCO3 | > 10000 | 1500 | –
5 | CCCN1c2ccc3[nH]c(=O)cc(C(F)(F)F)c3c2OC[C@H]1CC | 394 | > 10000 | –
6 | CC[C@@H]1COc2c(ccc3[nH]c(=O)cc(C(F)(F)F)c23)N1CC(F)(F)F | 1 | > 10000 | Efficacy [3]: 94%; Efficacy [4]: 98%; Activity [5]: inactive; Activity [6]: inactive; Activity [7]: inactive; Activity [8]: inactive; Activity (Rattus norvegicus [9]): Active; Activity (Rattus norvegicus [10]): Active
7 | O=c1cc(C(F)(F)F)c2c3c(ccc2[nH]1)N[C@H](c1ccccc1)CO3 | > 10000 | 1480 | –
8 | CC(C)C[C@@H]1COc2c(ccc3[nH]c(=O)cc(C(F)(F)F)c23)N1CC(F)(F)F | 98 | – | –
9 | O=c1cc(C(F)(F)F)c2c3c(ccc2[nH]1)N(CC1CC1)[C@@H](c1ccccc1)CO3 | 18 | > 10000 | –
10 | CC[C@@H]1COc2c(ccc3[nH]c(=O)cc(C(F)(F)F)c23)N1CC(C)C | 227 | > 10000 | –
11 | C=CCN1c2ccc3[nH]c(=O)cc(C(F)(F)F)c3c2OC[C@H]1C(C)C | – | > 10000 | –
12 | C=CCN1c2ccc3[nH]c(=O)cc(C(F)(F)F)c3c2OC[C@H]1CC | 51 | > 10000 | –
13 | CC[C@@H]1COc2c(ccc3[nH]c(=O)cc(C(F)(F)F)c23)N1 | > 10000 | 84 | Efficacy [3]: 42%; Activity [5]: inactive; Activity [6]: inactive; Activity [7]: inactive; Activity [8]: inactive
14 | CC[C@@H]1COc2c(ccc3[nH]c(=O)cc(C(F)(F)F)c23)N1CC(C)(C)O | 300 | > 10000 | –
15 | C[C@@H]1COc2c(ccc3[nH]c(=O)cc(C(F)(F)F)c23)N1C | > 10000 | – | –
16 | CC(C)[C@@H]1COc2c(ccc3[nH]c(=O)cc(C(F)(F)F)c23)N1C | 276 | – | –
17 | CC[C@@H]1COc2c(ccc3[nH]c(=O)cc(C(F)(F)F)c23)N1C | > 10000 | – | –
18 | CCC[C@@H]1COc2c(ccc3[nH]c(=O)cc(C(F)(F)F)c23)N1 | > 10000 | 113 | –
19 | CC[C@@H]1COc2c(ccc3[nH]c(=O)cc(C(F)(F)F)c23)N1CC | – | > 10000 | –
20 | O=c1cc(C(F)(F)F)c2c3c(ccc2[nH]1)N(CC1CC1)C(c1ccccc1)CO3 (stereo not given) | 3.5 | > 10000 | –
21 | O=c1cc(C(F)(F)F)c2c3c(ccc2[nH]1)N(CC(F)(F)F)CCO3 | 190 | – | –
22 | O=c1cc(C(F)(F)F)c2c3c(ccc2[nH]1)N(CC1CC1)[C@H](c1ccccc1)CO3 | > 10000 | 45 | –
23 | C[C@@H]1COc2c(ccc3[nH]c(=O)cc(C(F)(F)F)c23)N1CC(F)(F)F | 5.4 | > 10000 | Efficacy [3]: 40%; Efficacy [4]: 53%; IC50 (Glucocorticoid receptor): 3200 nM; Activity [5]: inactive; Activity [6]: inactive; Activity [7]: inactive; Activity [8]: inactive
24 | CCN1c2ccc3[nH]c(=O)cc(C(F)(F)F)c3c2OC[C@H]1C(C)C | – | > 10000 | –
25 | CCCN1c2ccc3[nH]c(=O)cc(C(F)(F)F)c3c2OC[C@H]1C | 406 | – | –
